Measured values published in patent US11667645B2, “Granzyme B directed imaging and therapy” (CytoSite Biopharma Inc., priority 2018, dated 2023).
Read-outs that look alike come from different tables or passages of the source.

Tests used:
[1] = target: Granzyme B (human lymphocytes) (Homo sapiens (Human), UniProt P10144); assay: human Granzyme B biochemical assay
Outline: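 Enzyme (10 nM working stock, assay buffer with 0.1% BSA) pre-incubated with compound for 30 min at 22 °C, then Ac-IETD-AFC (800 µM working stock) added for 60 min at 22 °C in the dark. Fluorescence read at Ex 400/Em 505 nm; 8-point 3.16-fold series (40 µM top working stock); IC50 from % inhibition versus standard-inhibitor and DMSO controls.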

[2] = metabolic stability assay using liver microsomes; assay type: in vitro ADME; details: human liver microsomes, with NRS at 37° C.
Protocol: In addition, compounds of Formula I-VIII described above are also tested in the metabolic stability assay using liver microsomes, as provided below.
Buffer pH7.4: Prepare 1 (M) KH2PO4 and 1 (M) K2HPO4. Titrate 1(M) K2HPO4 with 1 (M) KH2PO4 to obtain pH 7.40. Dilute this buffer 10 fold in Water (30 ml buffer+270 ml of water) to obtain 100 mM phosphate buffer. Adjust pH to 7.40±0.02 using 5(N) HCl or 5(N) NaOH.
NADPH Regeneration System (NRS): Prepare a solution containing 13 mM NADP, 33 mM Glucose-6-phosphate, 33 mM MgCl2 and 4 U/ml Glucose-6-phosphate dehydrogenase in buffer.
Liver Microsome (LM) suspension: Thaw LM vial on ice, then mix 1.0 ml LM (20 mg/ml) with 19 ml buffer [final LM Conc: 1 mg/ml]
LM+NRS suspension: Mix 5.0 ml NRS with 20 ml LM suspension [final LM Conc: 0.8 mg/ml]
System suitability standard: a synthesized compound having Mol wt 686.2 used as System suitability standard. Dissolve this compound in ice-cold acetonitrile to obtain concentration of 0.1 μg/ml and store at 4° C.
Compound Stock: 10 mM in DMSO
Sub stock (100 μM): 4 μl of 10 mM Compound Stock+[…] Acetonitrile
Working plate (2 μM): 10 μl of 100 μM Sub stock+490 μl buffer
Incubate all plastic materials including tips at 37° C. overnight.
Incubate LM suspension and NRS at 37° C. for 15 min before use.
Add 40 μl buffer to the wells of blank plate.
Add 40 μl compound (from working plate) to 0, 5, 10, 20, 30 and 60 min plates.
Initiate reaction by adding 40 μl of LM+NRS suspension in each plate.
Terminate reaction by adding 240 μl ice-cold acetonitrile containing system suitability standard at designated time points. For T=0 add 240 μl ice-cold acetonitrile containing system suitability standard before LM+NRS addition.
Centrifuge (3500 rpm, 20 min and 15° C.) the plates.
Mix 110 μl supernatant with 110 μl water and quantitate amount of Compound in the solution using LC-MS/MS.
For Scaled CLint & Predicted CL use the relevant physiological parameters, as applicable.
Human LM: Corning, Cat #25117
Mouse LM: Xenotech, Cat #M1000
(2) Volumes mentioned in the protocol are representative values and may change depending on number of test compounds.
(3) It is assumed that the compounds are chemically stable in the assay system/buffer.
The metabolic stability assay described above can be performed using different test concentrations, LM Concentrations, or time points.
Certain compounds of this disclosure were tested in the microsomal stability assay provided above.

[3] = Granzyme B (human lymphocytes) 5 nM, substrate Ac-IETD-AFC 200 μM, Cpd incubation with enzyme 30 mins, 22° C., read time 60 mins, read-out: IC50
[4] = Granzyme B IC50 as repeated in Table 7, read-out: IC50
[5] = Granzyme B IC50 as repeated in Table 7

Chain of Granzyme B (human lymphocytes) (P10144 21-247): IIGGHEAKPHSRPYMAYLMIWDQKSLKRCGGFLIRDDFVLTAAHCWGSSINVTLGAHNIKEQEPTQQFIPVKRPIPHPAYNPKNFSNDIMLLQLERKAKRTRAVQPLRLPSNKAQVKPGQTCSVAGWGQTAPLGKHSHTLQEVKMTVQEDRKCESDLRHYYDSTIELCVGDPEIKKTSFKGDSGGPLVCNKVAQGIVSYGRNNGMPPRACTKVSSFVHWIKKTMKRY

| Compound | IC50 [1, 3] [nM] | IC50 [1, 4] [nM] | biological potency of separated isomer (in words) ([1]; isomers separated by prep HPLC or column chromatography) | HLM % remaining @ 30 min [2] | IC50 [1] [nM] | IC50 [1, 5] [nM] |
| --- | --- | --- | --- | --- | --- | --- |
| CC[C@H](C)[C@H](NC(=O)CF)C(=O)N[C@H]1COc2cccc3c2N(C1=O)[C@H](C(=O)NCc1c[nH]nn1)C3 [Compound C098, (1S,8S)-8-[(2S,3S)-2-(2-Fluoro-acetylamino)-3-methyl-pentanoylamino]-9-oxo-1,2,8,9-tetrahydra-7H-6-oxa-9a-aza-benzo[cd]azulene-1-carboxylic acid (1H-[1,2,3]triazol-4-ylmethyl)-amide] |  |  |  | *** (the symbol “***” indicates a remaining percentage of 71-100%) | 1 to 300 | 1 to 300 |
| CC[C@@H](C)[C@H](NC(=O)Cc1csc2ccccc12)C(=O)N[C@H]1CCc2cccc3c2N(C1=O)[C@H](C(=O)NCc1c[nH]nn1)C3 [Compound C054, (2S,5S)-5-[(2S,3R)-2-(2-Benzo[b]thiophen-3-yl-acetylamino)-3-methyl-pentanoylamino]-4-oxo-1,2,4,5,6,7-hexahydro-azepino[3,2,1-hi]indole-2-carboxylic acid (1H-[1,2,3]triazol-4-ylmethyl)-amide] | 1 to 300 | 1 to 300 |  | * (“*” indicates a remaining percentage of 0-30%) |  |  |
| CC[C@H](C)[C@H](NC(=O)COCCF)C(=O)N[C@H]1CCc2cccc3c2N(C1=O)[C@H](C(=O)NCc1c[nH]nn1)C3 [Compound C058, (2S,5S)-5-{(2S,3S)-2-[2-(2-Fluoro-ethoxy)-acetylamino]-3-methyl-pentanoylamino}-4-oxo-1,2,4,5,6,7-hexahydro-azepino[3,2,1-hi]indole-2-carboxylic acid (1H-[1,2,3]-triazol-4-ylmethyl)-amide] | 1 to 300 | 1 to 300 |  | *** (the symbol “***” indicates a remaining percentage of 71-100%) |  |  |
| CC[C@H](C)[C@H](NC(=O)Cc1csc2ccccc12)C(=O)N[C@H]1CCc2cccc3c2N(C1=O)[C@H](C(=O)NCc1c[nH]nn1)C3 [Compound C006, (2S,5S)-5-[(2S,3S)-2-(2-Benzo[b]thiophen-3-yl-acetylamino)-3-methyl-pentanoylamino]-4-oxo-1,2,4,5,6,7-hexahydro-azepino[3,2,1hi]indole-2-carboxylic acid (1H-[1,2,3]triazol-4-ylmethyl)-amide] | 1 to 300 | 1 to 300 | biologically potent | * (“*” indicates a remaining percentage of 0-30%) |  |  |
| CC[C@H](C)[C@H](NC(=O)c1ccnc(F)c1)C(=O)N[C@H]1CCc2cccc3c2N(C1=O)[C@H](C(=O)NCc1c[nH]nn1)C3 [Compound C141, (2S,5S)-5-{(2S,3S)-2-[(2-Fluoro-pyridine-4-carbonyl)-amino]-3-methyl-pentanoylamino}4-oxo-1,2,4,5,6,7-hexahydro-azepino[3,2,1-hi]indole-2-carboxylic acid (1H-[1,2,3]triazol-4-ylmethyl)-amide] | 1 to 300 | 1 to 300 |  | *** (the symbol “***” indicates a remaining percentage of 71-100%) |  |  |
| CC[C@H](C)[C@H](NC(=O)c1ccccc1)C(=O)N[C@H]1COc2cccc3c2N(C1=O)[C@H](C(=O)NCc1c[nH]nn1)C3 [Compound C096, (1S,8S)-8-((2S,3S)-2-Benzoylamino-3-methyl-pentanoylamino)-9-oxo-1,2,8,9-tetrahydro-7H-6-oxa-9a-aza-benzo[cd]azulene-1-carboxylic acid (1H-[1,2,3]triazol-4-ylmethyl)-amide] | 1 to 300 | 1 to 300 |  | ** (“**” indicates a remaining percentage of 31-70%) |  |  |
| CC(C)[C@H](NC(=O)c1ccccc1)C(=O)N[C@H]1CCc2cccc3c2N(C1=O)[C@H](C(=O)NCc1c[nH]nn1)C3 [Compound C036, (2S,5S)-5-((S)-2-Benzoylamino-3-methyl-butyrylamino)-4-oxo-1,2,4,5,6,7-hexahydro-azepino[3,2,1-hi]indole-2-carboxylic acid (1H-[1,2,3]triazol-4-ylmethyl)-amide] | 1 to 300 | 1 to 300 |  | *** (the symbol “***” indicates a remaining percentage of 71-100%) |  |  |
| CC(C)[C@H](NC(=O)CF)C(=O)N[C@H]1CCc2cccc3c2N(C1=O)[C@H](C(=O)NCc1c[nH]nn1)C3 [Compound C057, (2S,5S)-5-[(S)-2-(2-Fluoro-acetylamino)-3-methyl-butyrylamino]-4-oxo-1,2,4,5,6,7-hexahydro-azepino[3,2,1-hi]indole-2-carboxylic acid (1H-[1,2,3]triazol-4-ylmethyl)-amide] |  |  |  | *** (the symbol “***” indicates a remaining percentage of 71-100%) | 1 to 300 | 1 to 300 |
| CC(=O)N[C@H](C(=O)N[C@H]1CCc2cccc3c2N(C1=O)[C@H](C(=O)NCc1c[nH]nn1)C3)C(C)C [Compound C025, (2S,5S)-5-((S)-2-Acetylamino-3-methyl-butyrylamino)-4-oxo-1,2,4,5,6,7-hexahydro-azepino[3,2,1-hi]indole-2-carboxylic acid (1H-[1,2,3]triazol-4-ylmethyl)-amide] | 1 to 300 | 1 to 300 |  | *** (the symbol “***” indicates a remaining percentage of 71-100%) |  |  |

More lines, main results first:

| IC50 [1, 3] [nM] | IC50 [1, 4] [nM] | biological potency of separated isomer (in words) ([1]; isomers separated by prep HPLC or column chromatography) | Compound | HLM % remaining @ 30 min [2] | IC50 [1] [nM] | IC50 [1, 5] [nM] |
| --- | --- | --- | --- | --- | --- | --- |
| 1 to 300 | 1 to 300 |  | CC[C@H](C)[C@H](NC(=O)c1ccc(F)nc1)C(=O)N[C@H]1CCc2cccc3c2N(C1=O)[C@H](C(=O)NCc1c[nH]nn1)C3 [Compound C140, (2S,5S)-5-{(2S,3S)-2-[(6-Fluoro-pyridine-3-carbonyl)-amino]-3-methyl-pentanoylamino}-4-oxo-1,2,4,5,6,7-hexahydro-azepino[3,2,1-hi]indole-2-carboxylic acid (1H-[1,2,3]triazol-4-ylmethyl)-amide] | *** (the symbol “***” indicates a remaining percentage of 71-100%) |  |  |
| 1 to 300 | 1 to 300 |  | CC(C)[C@H](NC(=O)COCCF)C(=O)N[C@H]1COc2cccc3c2N(C1=O)[C@H](C(=O)NCc1c[nH]nn1)C3 [Compound C103, (1S,8S)-8-{(S)-2-[2-(2-Fluoro-ethoxy)-acetylamino]-3-methyl-butyrylamino}-9-oxo-1,2,8,9-tetrahydro-7H-6-oxa-9a-aza-benzo[cd]azulene-1-carboxylic acid (1H-[1,2,3]triazol-4-ylmethyl)-amide] | *** (the symbol “***” indicates a remaining percentage of 71-100%) |  |  |
| 1 to 300 | 1 to 300 |  | CC[C@H](C)[C@H](NC(=O)COCCF)C(=O)N[C@H]1COc2cccc3c2N(C1=O)[C@H](C(=O)NCc1c[nH]nn1)C3 [Compound C099, (1S,8S)-8-{(2S,3S)-2-[2-(2-Fluoro-ethoxy)-acetylamino]-3-methyl-pentanoylamino}-9-oxo-1,2,8,9-tetrahydro-7H-6-oxa-9a-aza-benzo[cd]azulene-1-carboxylic acid (1H-[1,2,3]triazol-4-ylmethyl)-amide] | *** (the symbol “***” indicates a remaining percentage of 71-100%) |  |  |
| 1 to 300 | 1 to 300 |  | CC[C@H](C)[C@H](NC(C)=O)C(=O)N[C@H]1CCc2cccc3c2N(C1=O)[C@H](C(=O)NCc1c[nH]nn1)C3 [Compound C028, (2S,5S)-5-((2S,3S)-2-Acetylamino-3-methyl-pentanoylamino)-4-oxo-1,2,4,5,6,7-hexahydro-azepino[3,2,1-hi]indole-2-carboxylic acid (1H-[1,2,3]triazol-4-ylmethyl)-amide] | *** (the symbol “***” indicates a remaining percentage of 71-100%) |  |  |
|  | 1 to 300 |  | CC(C)[C@H](NC(=O)Cc1csc2ccccc12)C(=O)N[C@H]1CCc2cccc3c2N(C1=O)[C@H](C(=O)NCc1c[nH]nn1)C3 [Compound C003, (2S,5S)-5-[(S)-2-(2-Benzo[b]thiophen-3-yl-acetylamino)-3-methyl-butyrylamino]-4-oxo-1,2,4,5,6,7-hexahydro-azepino[3,2,1-hi]indole-2-carboxylic acid (1H-[1,2,3]triazol-4-ylmethyl)-amide] | * (“*” indicates a remaining percentage of 0-30%) |  |  |
